The test system of series [1] is patient with obstructive sleep apnea. The series can be described thus: Repeated dosing, multiple medication study with calcium acamprosate and a weight reducing agent (sibutramine); polysomnographic investigation. Type of series: in vivo, human. As for the experimental part:
The patient had recently been started on sibutramine (Reductil® capsules, 15 mg once daily) for weight loss. A follow-up sleep investigation (investigation 2) was performed 126 days later when the patient presented a BMI of 31.8. The AHI at this occasion was 19. Calcium acamprosate therapy was started on 333 mg three times per day orally (Campral® tablets) and increased to twice 333 mg three times per day after two weeks. At the end of this treatment period of four weeks (investigation 3) the BMI was marginally changed compared with investigation 2 (31.6) but AHI had decreased to 9.

A further series has as its system OSA patient. The series can be described thus: Repeated dosing study with calcium acamprosate in an OSA patient (polysomnographic recording). Type of series: in vivo, human. From the text:
A study of repeated calcium acamprosate dosing was undertaken in a patient with a BMI of 32.2. This patient had not consumed any alcohol during the 3 months proceeding the current medication period. The patient suffered from moderate OSA (as determined by an AH index in excess of 35 during previous clinical 8-channel overnight monitoring studies). The contribution from central apneas was low and constituted 5% of obstructive events, respectively. A baseline polysomnographic recording (standard sleep montage, nasal pressure recording) was undertaken at baseline and calcium acamprosate therapy was started on 333 mg three times per day orally (Campral® tablets) with an increase to 2 times 333 mg three times per day after two weeks. Key parameters (indices) were recorded at first dosing and after daily dosing for three weeks (Table).

The conditions of series [2]: pending dosage, route of administration, and dosing scheme; extended in renal impairment; cited from earlier work.
Setting [3] is: Week 0, investigation 1 (admission), recently started on sibutramine 15 mg once daily.
Where [4] appears, read: Week 18, investigation 2 (126 days later), sibutramine 15 mg once daily.
Where [5] appears, read: Week 3 of oral calcium acamprosate, Week 0 baseline 3.

The values that follow come from patent US20080261931A1, “Method and Means of Preventing and Treating Sleep Disordered Breathing” (Cereu-Science AB, priority 2005, published 2008).

Consider `CC(C)CC(N(C)C)C1(c2ccc(Cl)cc2)CCC1` (stereo not drawn) [Sibutramine, sibutramine], for which the “AHI (apnea/hypopnea index, number of obstructive apneic/hypopneic events per hour of sleep)” value is 30 events per hour of sleep in series [1] (setting [3]) and 19 events per hour of sleep in series [1] (setting [4]). For the same molecule, the entries for the “BMI (body mass index)” value in series [1] (setting [3]) and in series [1] (setting [4]) were 33.2 kg/m^2 and 31.8 kg/m^2, respectively.

Take `CC(=O)NCCCS(=O)(=O)O` [calcium acamprosate]: in the series with OSA patient (setting [5]), the “CSAI (central sleep apnea index, number of central apneic events per hour of sleep)” value is given as 2 events per hour of sleep and the “Sat <90%/hr (number of apneic/hypopneic episodes per hour of sleep with an oxygen saturation below 90%)” value is given as 1 episodes per hour of sleep. The “AI (apnea index, number of obstructive apneic events per hour of sleep)” value in the series on OSA patient (Week 3 of oral calcium acamprosate, Week 0 baseline 18) is 7 events per hour of sleep. In addition, in the series on OSA patient (Week 3 of oral calcium acamprosate, Week 0 baseline 22), the “HI (hypopnea index, number of obstructive hypopneic events per hour of sleep)” value is recorded as 9 events per hour of sleep. Besides, the “AHI (apnea/hypopnea index, number of obstructive apneic/hypopneic events per hour of sleep)” value in the series on OSA patient (Week 3 of oral calcium acamprosate, Week 0 baseline 40) is on record as 16 events per hour of sleep. In addition, the “MinSat (lowest oxygen saturation value recorded during the period of sleep)” value in the series with OSA patient (Week 3 of oral calcium acamprosate, Week 0 baseline 86) is 91. Further, in the series with OSA patient (after calcium acamprosate, polysomnography), the “Number of central and mixed events” value is “seemed to decrease in proportion to the number of obstructive events”. Further, in the series with OSA patient (already after one week), the “Daytime sleepiness (patient-reported)” value is reported as “reduction in daytime sleepiness”. The “Snoring (patient-reported)” value in the series with OSA patient (early after introduction of the medication) was “notable reduction in snoring”. Besides, the “Apnea reducing effect in sleep apnea” value in the series with OSA patient (obstructive and seemingly central events, maintained over the entire study period) was “potent apnea reducing effect”. For the same molecule, the Side effects entry with OSA patient (three-week study, one patient) was “No significant side effects”. The “Apnea reducing effect in a patient with sleep apnea” value in series [1] (added to sibutramine) is “potent apnea reducing effect”. Also, the “Effect of calcium acamprosate in comparison with that obtained by the weight reducing agent” value in series [1] (combined with sibutramine) is recorded as “additive”. Besides, in series [2], the Half-life in plasma is 15 to 30 h.
